The numbers were not newly measured in patent publication US8153634B2, “Carbinol derivatives having cyclic linker” (Kowa Company, Ltd., priority 2008, dated 2012), which cites them from elsewhere.

The test system of the data set is LXRβ (versus LXRα). The settings on record: reported in non-patent document 22.

Consider `O=C(O)Cc1ccc(COc2cccc(-c3c(Cc4ccccc4)cnc4c(C(F)(F)F)cccc34)c2)cc1` [WAY-254011], for which the “LXRβ-selective binding affinity, α/β ratio” value is 1 to 5.
